What was measured:
[1] = system: ApoB expression in the livers (Liver ApoB:GAPD mRNA ratio); test: murine ApoB siRNA activity model: ApoB knockdown in liver by nucleic acid-lipid particles containing the cationic lipid; type: in vivo, female BALB/c mice
Experimental: This Example compares the effectiveness, in a murine ApoB siRNA activity model, of short chain trialkyl lipids of the present invention with lipids having longer alkyl chains but which are otherwise structurally identical to the short chain trialkyl lipids.
Nucleic acid-lipid particle formulations containing cationic lipids were assessed for their ability to knockdown ApoB expression in the livers of 7 to 9 week old female BALB/c mice. Mice were dosed intravenously (tail vein) in groups of three at either 0.02, 0.03 or 0.05 mg/kg. ApoB knockdown (normalized to the housekeeping gene GAPDH) was measured relative to PBS as a negative control. Each experiment was terminated at 48 hours after dosing.
For comparison to a positive control, the performance of short chain trialkyl lipids of the present invention was compared to a potent cationic lipid, referred to as C2K, that is known to facilitate nucleic acid delivery, in vivo, in nucleic acid-lipid particles (Nature Biotech., Vol 28(2),172 (2010)).

[2] = system: ApoB (normalized to the housekeeping gene GAPDH), liver; test: murine ApoB model with a different, less potent siRNA sequence; liver ApoB silencing via Quantigene Assay; type: in vivo, Mice; conditions: 0.04 mg/kg siRNA; for ApoB gene silencing relative to PBS control (Liver ApoB:GAPD mRNA ratio): intravenous (tail vein), 48 h after dosing, different, less potent siRNA sequence
Experimental: In another experiment, two more lipids of the present invention (Compounds 62 and 71) were formulated into lipid nanoparticles with siRNA to target ApoB. Mice were dosed intravenously (tail vein) and sacrificed 48 h after dosing. Livers were harvested and homogenized, and the level of ApoB silencing (normalized to the housekeeping gene GAPDH) then measured via Quantigene Assay. The results are shown in Table 6 and are expressed as a percentage, relative to a PBS-treated negative control group. […] Inter-experiment comparisons are therefore not possible: […]

[3] = injected dose of 0.03 mg/kg, separate experiment

SMILES | activity compared to C2K ([1]; injected dose of 0.02 mg/kg) | activity compared to C2K [1, 3] | also measured
CCCCC/C=C\CCCC(CCC/C=C\CCCCC)C(CCC/C=C\CCCCC)OC(=O)CCCN(C)C (centres unmarked) [Compound 9] | greater activity than C2K |  | 
CCCCC/C=C\CCCC(CCC/C=C\CCCCC)C(CCC/C=C\CCCCC)OC(=O)CCCCCN(C)C (centres unmarked) [Compound 11, (6Z,16Z)-12-((Z)-dec-4-enyl)docosa-6,16-dien-11-yl 6-(dimethylamino)hexanoate] |  | greater activity than C2K | 
CCCCC/C=C\CCCC(CCC/C=C\CCCCC)C(CCC/C=C\CCCCC)OC(=O)CCCCN(C)C (centres unmarked) [Compound 13, (6Z,16Z)-12-((Z)-dec-4-enyl)docosa-6,16-dien-11-yl 5-(dimethylamino)pentanoate] | greater activity than C2K | greater activity than C2K | 
CCCCC/C=C\CCCC(CCC/C=C\CCCCC)C(CC/C=C\CCCCC)OC(=O)CCCCN(C)C (centres unmarked) [Compound 19, (6Z,15Z)-11-((Z)-dec-4-enyl)henicosa-6,15-dien-10-yl 5-(dimethylamino)pentanoate] | greater activity than C2K | greater activity than C2K | 
CCCCC/C=C\CCCC(CCC/C=C\CCCCC)C(CC/C=C\CCCCC)OC(=O)CCCN(C)C (centres unmarked) [Compound 22, (6Z,15Z)-11-((Z)-dec-4-enyl)henicosa-6,15-dien-10-yl 4-(dimethylamino)butanoate] | greater activity than C2K |  | 
CCCCC/C=C\CCCC(CCC/C=C\CCCCC)C(CCC/C=C\CCCCC)OC(=O)N(C)CCCN(C)C (centres unmarked) [Compound 23, (6Z,16Z)-12-((Z)-dec-4-enyl)docosa-6,16-dien-11-yl 3-(dimethylamino)propyl(methyl)carbamate] |  | greater activity than C2K | 
CCCCC/C=C\CCCC(CCC/C=C\CCCCC)C(CCC/C=C\CCCCC)OC(=O)NCCN(C)C (centres unmarked) [Compound 25, (6Z,16Z)-12-((Z)-dec-4-enyl)docosa-6,16-dien-11-yl 2-(dimethylamino)ethylcarbamate] |  | greater activity than C2K | 
CCCCC/C=C\CCCC(CCC/C=C\CCCCCC)C(CC/C=C\CCCCC)OC(=O)NCCCN(C)C (centres unmarked) [Compound 27, (6Z,15Z)-11-((Z)-dec-4-en-1-yl)docosa-6,15-dien-10-yl (3-(dimethylamino)propyl)carbamate] | greater activity than C2K |  | 
CCCCC/C=C\CCC(CC/C=C\CCCCC)C(CC/C=C\CCCCC)OC(=O)CCCN(C)C (centres unmarked) [Compound 40] | greater activity than C2K |  | 
CCCCC/C=C\CCCC(OC(=O)CCCCN(C)C)C(CCCCCCCCCC)CCCCCCCCCC (centres unmarked) [Compound 50, (Z)-12-decyldocos-6-en-11-yl 5-(dimethylamino)pentanoate] | greater activity than C2K |  | 
CCCCC/C=C\CCCC(CCC/C=C\CCCCC)C(CCC/C=C\CCCCC)OCCCCN(C)C (centres unmarked) [Compound 62, 4-(((6Z,16Z)-12-((Z)-dec-4-en-1-yl)docosa-6,16-dien-11-yl)oxy)-N,N-dimethylbutan-1-amine] |  |  | activity compared to the DLin-MP-DMA control [2]: significantly more active; ApoB gene silencing relative to PBS control (Liver ApoB:GAPD mRNA ratio) [2]: −56%
CC(C)CCCC(C)CCC(CCC(C)CCCC(C)C)C(CCC(C)CCCC(C)C)OC(=O)CCCCN(C)C (centres unmarked) [Compound 71, 10-(3,7-dimethyloctyl)-2,6,13,17-tetramethyloctadecan-9-yl 5-(dimethylamino)pentanoate] |  |  | ApoB gene silencing relative to PBS control (Liver ApoB:GAPD mRNA ratio) [2]: −29%
CCCCC/C=C\C/C=C\CCCCCCCCC(CCCCCCCC/C=C\C/C=C\CCCCC)OCCCN(C)C [DLin-MP-DMA, reference compound] |  |  | ApoB gene silencing relative to PBS control (Liver ApoB:GAPD mRNA ratio) [2]: −32%; effectiveness compared to C2K ([1]; three separate experiments, 0.03 or 0.05 mg/kg): more effective than C2K

Reference: patent US11395854B2, “Trialkyl cationic lipids and methods of use thereof” (ARBUTUS BIOPHARMA CORPORATION, priority 2012, dated 2022)
